Experimental data: US20230174584A1, “Antibiotic Compounds” (priority 2019, published 2023)
In brackets after ≈: the same amount, converted by molar mass. Like-named read-outs stand apart in the source and are kept apart here.

Tests used:
[1] = tested on: E. faecium E7312; test: MIC assay; format: cell-based, Enterococcus faecium
[2] = tested on: Klebsiella pneumoniae JS265; test: MIC assay; format: cell-based
Description: (§1) The antibacterial activity of the compounds was tested against a panel of bacteria, including Gram-positive bacteria (S. aureus ATCC29213, S. aureus USA300, S. aureus LIM-2, NR-45881, S. aureus HIP13419, NR-46413, E. faecium E155, E. faecium E7314, E. faecium E980, E. faecalis E1246, E. faecalis E7406 and S. pneumonia 153). The antibacterial activity of the compounds was further tested against S. aureus NY-155, NR-46236, S. aureus HIP12864, NR-46074, S. aureus 880 (BR-VRSA), NR-49120, E. faecalis E1246, E. faecalis E7604, as well as some Gram-negative bacteria (Escherichia coli and Klebsiella pneumoniae). Minimum inhibitory concentrations (MICs) in μg/mL were performed according to the CLSI guidelines. From glycerol stocks, bacterial strains were cultured on blood agar plates and incubated at 37° C. for 18 h. A single colony was transferred to tryptic soy broth (TSB) with 0.002% polysorbate 80 (p80). For the Enterococcus, VISA and VRSA strains, the cultures were grown at 37° C. until the optical density of the suspension reached a level equivalent to the 0.5 McFarland standard. The bacterial suspensions were diluted in TSB with 0.002% p80 to reach a bacterial cell density of 10^6 CFU/mL. In case of the other (vancomycin-sensitive) S. aureus strains, the direct colony suspension method was used. For these strains, after transfer of the colonies to TSB with 0.002% p80, they were immediately diluted to 10^6 CFU/mL, instead of incubated prior to this dilution. In the case of S. pneumonia, direct colony suspension was used by immediately suspending multiple colonies from fresh blood agar plates in TSB+0.002% p80 to an OD600 of 0.5 and subsequent dilution to 10^6 CFU mL^−1 in TSB+0.002% p80+5% lysed horse blood. Antibiotic dilutions for this strains were also made in TSB+0.002% p80+5% lysed horse blood. Both agar and microplates containing S. pneumonia were incubated at 37° C. with 5% CO2 for 24 h with constant shaking (600 rpm). […] The cultures were grown to exponential phase (OD600=0.5) at 37° C. […] In polypropylene 96-well microtiter plates, test compounds were added in biological triplicates and serial diluted 2-fold by transfer and mixing from one well to the next to achieve a final volume of 50 μL per well. An equal volume of bacterial suspension (10^6 CFU mL^−1) was added to the wells. The plates were sealed with breathable membranes and incubated at 37° C. for 24 h with constant shaking (600 rpm). In polypropylene microtiter plates, 100 μL of the test compounds was added to the first row in biological triplicates, and 50 μL of media was added to the other wells. The compounds were subjected to serial dilution by transfer and mixing of 50 μL from one well to the next. Subsequently, 50 μL of bacterial suspension (10^6 CFU/mL) was added to the wells. The plates were sealed with breathable membranes and incubated at 37° C. for 24 h with constant shaking (600 rpm). Positive growth control consisted of wells with bacterial suspension and without antibiotic. Negative growth control consisted of solely media without bacterial suspension or antibiotic. The MICs were determined from the median of a minimum of triplicates.

[3] = tested on: S. pneumoniae 153; test: MIC assay; format: cell-based
Description: as §1

[4] = tested on: Escherichia coli W3110; test: MIC assay; format: cell-based
Description: as §1

[5] = tested on: Klebsiella pneumoniae ATCC 27736; test: MIC assay; format: cell-based
Description: as §1

[6] = tested on: Escherichia coli ATCC 25922; test: MIC assay; format: cell-based
Description: as §1

[7] = tested on: Escherichia coli ATCC 35218; test: MIC assay; format: cell-based
Description: as §1

[8] = tested on: Klebsiella pneumoniae ATCC 13883; test: MIC assay; format: cell-based
Description: as §1

[9] = tested on: E. faecium E0338; test: MIC assay; format: cell-based, Enterococcus faecium
[10] = tested on: E. faecium E1441; test: MIC assay; format: cell-based, Enterococcus faecium
[11] = tested on: panel of 31 vancomycin-resistant E. faecium strains; test: MIC assay, MIC50/MIC90 over panel; format: cell-based, Enterococcus faecium
Description: as §1

[12] = tested on: S. aureus ATCC29123; test: Lipid II antagonization assay; format: cell-based, Staphylococcus aureus; conditions: for visible bacterial growth with lipid II / visible bacterial growth without lipid II: 8×MIC of test compound, 24 h; for visible bacterial growth with lipid II: 5-fold molar excess of lipid II; for bacterial growth after co-incubation with lipid II: 8×MIC; for visible bacterial growth with lipid II: key: − means no visible growth; + means visible growth; for visible bacterial growth without lipid II: key: − means no visible growth; + means visible growth
Description: Lipid II in chloroform was added in the appropriate amount (5-fold molar excess compared to test antibiotics) to a 96-well plate and the chloroform was allowed to evaporate. […] Of these dilutions, 50 μL was mixed with the 5-fold molar excess of pure lipid II in triplicates in the plate as well as added to the plate in triplicates without lipid II present. S. aureus ATCC29123 colonies were suspended in TSB with 0.002% p80 by direct colony suspension to an optical density that reached a level equivalent to the 0.5 McFarlan standard. […] The samples were incubated at 37° C. for 24 h with constant shaking (600 rpm) and inspected for visible bacterial growth. Positive growth control consisted of wells with bacterial suspension and without antibiotic or lipid II. Negative growth control consisted of solely media without bacterial suspension, antibiotic or lipid II.
In the antagonization assay, lipid II is co-incubated with the test antibiotics in the presence of bacterial culture. When lipid II binds the glycopeptides, the binding of these antibiotics to their target in the growing bacterial culture is antagonized. This ultimately results in diminished activity of the antibiotics and bacterial growth which normally would not be visible (at 8×MIC) becomes visible. Therefore, this assay could be used to determine if part of the mechanism of action of our compounds involves binding to lipid II.

[13] = tested on: E. faecium E1763; test: MIC assay; format: cell-based, Enterococcus faecium
Description: as §1

[14] = tested on: E. faecium E0333; test: MIC assay; format: cell-based, Enterococcus faecium
Description: as §1

[15] = tested on: E. faecalis E1246; test: MIC assay; format: cell-based, Enterococcus faecalis
Description: as §1

[16] = S. pneumoniae 153, TSB+0.002% p80+5% lysed horse blood
[17] = panel of 31 vancomycin-resistant E. faecium strains
[18] = E. faecalis E1246 VRE (VanA), Table 7
[19] = E. faecalis E1246 VRE (vanA), Table 9

Row | SMILES | MIC ([1]; E. faecium E7312, VanA) [µg/mL] | MIC [2] [µg/mL] | MIC [3, 16] [µg/mL] | MIC [4] [µg/mL] | MIC [5] [µg/mL] | MIC [6] [µg/mL] | MIC [7] [µg/mL] | MIC [8] [µg/mL] | MIC ([9]; E. faecium E0338, VanA) [µg/mL] | MIC ([10]; E. faecium E1441, VanA) [µg/mL] | MIC50 [11, 17] [µg/mL] | MIC90 [11, 17] [µg/mL] | visible bacterial growth with lipid II [12] | visible bacterial growth without lipid II [12] | bacterial growth after co-incubation with lipid II [12] | MIC ([13]; E. faecium E1763, VanA) [µg/mL] | MIC ([14]; E. faecium E0333, VanA) [µg/mL] | MIC [15, 18] [µg/mL] | MIC [15, 19] [µg/mL] | MIC ([3]; Streptococcus pneumoniae, 153) [µg/mL] | also measured
1 | CCCCCCCCNC(N)=Nc1ccc(CN[C@@]2(C)C[C@H](O[C@H]3[C@H](Oc4c5cc6cc4Oc4ccc(cc4Cl)[C@@H](O)[C@@H](NC(=O)[C@@H](CC(C)C)NC)C(=O)N[C@@H](CC(N)=O)C(=O)N[C@H]6C(=O)N[C@H]4C(=O)N[C@H](C(=O)N[C@H](C(=O)O)c6cc(O)cc(O)c6-c6cc4ccc6O)[C@H](O)c4ccc(c(Cl)c4)O5)O[C@H](CO)[C@@H](O)[C@@H]3O)O[C@@H](C)[C@H]2O)cc1 [Compound 6] | 0.063 (≈ 0.0369 µM) | >128 | ≤0.008 | >128 | >128 | >128 | >128 | >128 | 2 (≈ 1.17 µM) | 2 (≈ 1.17 µM) | 0.5 (≈ 0.293 µM) | 4 (≈ 2.34 µM) | + | − | Bacterial growth was visible | 0.031 (≈ 0.0181 µM) | 4 (≈ 2.34 µM) | 8 (≈ 4.68 µM) | 8 (≈ 4.68 µM) |  | 
2 | CCCCCCN(CCCCCC)C(N)=Nc1ccc(CN[C@@]2(C)C[C@H](O[C@H]3[C@H](Oc4c5cc6cc4Oc4ccc(cc4Cl)[C@@H](O)[C@@H](NC(=O)[C@@H](CC(C)C)NC)C(=O)N[C@@H](CC(N)=O)C(=O)N[C@H]6C(=O)N[C@H]4C(=O)N[C@H](C(=O)N[C@H](C(=O)O)c6cc(O)cc(O)c6-c6cc4ccc6O)[C@H](O)c4ccc(c(Cl)c4)O5)O[C@H](CO)[C@@H](O)[C@@H]3O)O[C@@H](C)[C@H]2O)cc1 [Compound 12] | 0.125 (≈ 0.0708 µM) | >128 | ≤0.008 | >128 | >128 | >128 | >128 | >128 | 2 (≈ 1.13 µM) | 2 (≈ 1.13 µM) | 0.25 (≈ 0.142 µM) | 2 (≈ 1.13 µM) |  |  |  | 0.031 (≈ 0.0176 µM) | 2 (≈ 1.13 µM) | 8 (≈ 4.53 µM) | 8 (≈ 4.53 µM) |  | 
3 | CN[C@H](CC(C)C)C(=O)N[C@H]1C(=O)N[C@@H](CC(N)=O)C(=O)N[C@H]2C(=O)N[C@H]3C(=O)N[C@H](C(=O)N[C@H](C(=O)O)c4cc(O)cc(O)c4-c4cc3ccc4O)[C@H](O)c3ccc(c(Cl)c3)Oc3cc2cc(c3O[C@@H]2O[C@H](CO)[C@@H](O)[C@H](O)[C@H]2O[C@H]2C[C@](C)(NCc3ccc(N=C(N)NC/C=C(\C)CCC=C(C)C)cc3)[C@H](O)[C@H](C)O2)Oc2ccc(cc2Cl)[C@H]1O [Compound 14] | 0.25 (≈ 0.144 µM) | >128 | ≤0.008 | >128 | >128 | >128 | >128 | >128 | 4 (≈ 2.31 µM) | 4 (≈ 2.31 µM) | 1 (≈ 0.577 µM) | 8 (≈ 4.62 µM) | + | − | Bacterial growth was visible | 0.125 (≈ 0.0721 µM) | 8 (≈ 4.62 µM) | 8 (≈ 4.62 µM) | 8 (≈ 4.62 µM) |  | 
4 | CN[C@H](CC(C)C)C(=O)N[C@H]1C(=O)N[C@@H](CC(N)=O)C(=O)N[C@H]2C(=O)N[C@H]3C(=O)N[C@H](C(=O)N[C@H](C(=O)O)c4cc(O)cc(O)c4-c4cc3ccc4O)[C@H](O)c3ccc(c(Cl)c3)Oc3cc2cc(c3O[C@@H]2O[C@H](CO)[C@@H](O)[C@H](O)[C@H]2O[C@H]2C[C@](C)(N)[C@H](O)[C@H](C)O2)Oc2ccc(cc2Cl)[C@H]1O [Vancomycin, reference compound] |  |  |  |  |  |  | > 128 |  |  |  |  |  | + | − |  |  |  |  | >128 | 0.5 (≈ 0.345 µM) | MIC ([1]; Enterococcus faecium, E7312): > 128 µg/mL; MIC ([2]; read-out: MIC): > 128 µg/mL; MIC ([4]; read-out: MIC): > 128 µg/mL; MIC ([5]; ATCC27736, read-out: MIC): > 128 µg/mL; MIC ([6]; ATCC25922, read-out: MIC): > 128 µg/mL; MIC ([8]; ATCC13883, read-out: MIC): > 128 µg/mL; MIC ([9]; Enterococcus faecium, E0338): > 128 µg/mL; MIC ([10]; Enterococcus faecium, E1441): > 128 µg/mL; MIC50 ([11]; Enterococcus faecium): 128 µg/mL (≈ 88.3 µM); MIC90 ([11]; Enterococcus faecium): 128 µg/mL (≈ 88.3 µM); MIC ([13]; Enterococcus faecium, E1763): 128 µg/mL (≈ 88.3 µM); MIC ([14]; Enterococcus faecium, E0333): > 128 µg/mL; MIC ([15]; Enterococcus faecalis, VRE): > 128 µg/mL
5 | CN[C@H](CC(C)C)C(=O)N[C@H]1C(=O)N[C@@H](CC(N)=O)C(=O)N[C@H]2C(=O)N[C@H]3C(=O)N[C@H](C(=O)N[C@H](C(=O)O)c4cc(O)cc(O)c4-c4cc3ccc4O)[C@H](O[C@H]3C[C@](C)(N)[C@@H](O)[C@H](C)O3)c3ccc(c(Cl)c3)Oc3cc2cc(c3O[C@@H]2O[C@H](CO)[C@@H](O)[C@H](O)[C@H]2O[C@H]2C[C@](C)(NCc3ccc(-c4ccc(Cl)cc4)cc3)[C@@H](O)[C@H](C)O2)Oc2ccc(cc2Cl)[C@H]1O [Oritavancin] |  |  |  |  |  |  |  |  |  |  |  |  |  |  |  |  |  |  | 1 (≈ 0.558 µM) | ≤ 0.008 | MIC ([15]; Enterococcus faecalis, VRE): 1 µg/mL (≈ 0.558 µM)
